In brackets after ≈: the same amount, converted by molar mass. A value given as a limit tells only on which side of the number the result lay.

Assay [1] relates to Aspergillus niger and A. carbonarius. To be noted: vineyards; Tjamos et al., Journal of Phytopathology (2004); cited from earlier work.
Assay [2] concerns Aureobasidium pullulans P 268 (Ap1). The assay can be described thus: Poison plate assay. To be noted: 168 h, evaluated after one week. Format: cell-based.
Assay [3] deals with Aspergillus niger CBS 554.65 (An). The assay can be described thus: Poison plate assay. Format: cell-based. To be noted: CBS554, 168 h, evaluated after one week.
Assay [4] relates to Chaetomium globosum CEB 1218.2 (Cg). The assay can be described thus: Poison plate assay. Format: cell-based. To be noted: evaluated after one week. Also on record: key: When no fungal growth was observed, the abbreviation “ng” was used.
For assay [5], the system named is Humicola grisea MG 28 (Hg). In words: Poison plate assay. Format: cell-based. To be noted: 168 h, evaluated after one week.
Assay [6] relates to Aspergillus niger CBS 554.65. In words: Stick test on treated Scots Pine. Conditions: 3 weeks exposure. It counts as cell-based. The text has this: (§1) [table] […] GA medium was used as a less nutrient-rich alternative to PDA, in order to prevent the test fungi from bypassing the specific mode of action of anilinopyrimidines like cyprodinil, pyrimethanil and […].
The subject of assay [7] is Aureobasidium pullulans P 268. In words: Stick test on treated Scots Pine. It counts as cell-based. Conditions: 3 weeks exposure.
From the text: as §1

Assay [8] deals with Chaetomium globosum ATCC 6205. The assay can be described thus: Stick test on treated Scots Pine. It counts as cell-based. To be noted: 3 weeks exposure.
From the text: as §1

The subject of assay [9] is Cladosporium cladosporioides IHEM 3795. The assay can be described thus: Stick test on treated Scots Pine. Format: cell-based. Conditions: 3 weeks exposure.
From the text: as §1

The test system of assay [10] is Coniophora puteana BAM 15. The assay can be described thus: Stick test on treated Scots Pine. Format: cell-based. Conditions: 3 weeks exposure.
From the text: as §1

Assay [11] relates to Coriolus versicolor CTB 863A. The assay can be described thus: Stick test on treated Scots Pine. Format: cell-based. Conditions: 3 weeks exposure.
From the text: as §1

The test system of assay [12] is Humicola grisea MG 28. In words: Stick test on treated Scots Pine. Format: cell-based. To be noted: 3 weeks exposure.
From the text: as §1

In assay [13] the test system is Trichoderma sp. isol. MB test. In words: Stick test on treated Scots Pine. Format: cell-based. Conditions: 3 weeks exposure.
From the text: as §1

For assay [14], the system named is Trichoderma viride CBS 189.79. The assay can be described thus: Stick test on treated Scots Pine. It counts as cell-based. Conditions: 3 weeks exposure.
From the text: as §1

Turning to `COC(=O)Nc1nc2ccccc2[nH]1` [carbendazim], the “Control of Aspergillus spp. infection” value in assay [1] was “ineffective”.
For orientation: MIC means the least concentration at which growth counts as inhibited. With `Cc1cc(C2CC2)nc(Nc2ccccc2)n1` [cyprodinil, 4-cyclopropyl-6-methyl-N-phenyl-2-pyrimidinamine], the MIC in [2] (medium CDA) was 5 µg/mL (≈ 22.2 µM); in [2] (medium GA), 10 µg/mL (≈ 44.4 µM); in [2] (medium GGA), 5 µg/mL (≈ 22.2 µM); in assay [3] (medium CDA) it was < 0.6 µg/mL; in assay [3] (medium GA) it was < 0.6 µg/mL; in [3] (medium GGA) it was < 0.6 µg/mL. Moreover, the results for the MIC in [5] (medium CDA), in assay [5] (medium GA) and in assay [5] (medium GGA) were 10 µg/mL (≈ 44.4 µM), 10 µg/mL (≈ 44.4 µM) and 20 µg/mL (≈ 88.8 µM), respectively. In addition, the “MIC value, Cg” value in assay [4] (medium CDA), in assay [4] (medium GA) and in [4] (medium GGA) was “ng” in each case. The “Threshold value, A. niger” value in assay [6] (medium GA) and in assay [6] (medium PDA) was >6400 ppm throughout. Further, the results for the “Threshold value, A. pullulans” value in [7] (medium GA) and in assay [7] (medium PDA) were 3200-6400 ppm and >6400 ppm, respectively. Also, the “Threshold value, C. globosum” value in assay [8] (medium GA) was 100-200 ppm; in assay [8] (medium PDA) it was 1600-3200 ppm. Besides, the “Threshold value, C. cladosporioides” value in [9] (medium GA) is 800-1600 ppm; in assay [9] (medium PDA), >6400 ppm. Further, the entries for the “Threshold value, C. puteana” value in assay [10] (medium GA) and in [10] (medium PDA) were 3200-6400 ppm and >6400 ppm, respectively. Besides, the “Threshold value, C. versicolor” value in [11] (medium GA) and in [11] (medium PDA) was >6400 ppm each time. Besides, the “Threshold value, H. grisea” value is on record as 200-400 ppm in assay [12] (medium GA) and 800-1600 ppm in [12] (medium PDA). Also, the “Threshold value, T. sp.” value in [13] (medium GA) and in assay [13] (medium PDA) was >6400 ppm each time. For the same compound, the “Threshold value, T. viride” value in assay [14] (medium GA) and in assay [14] (medium PDA) was >6400 ppm each time.
With `CC#Cc1cc(C)nc(Nc2ccccc2)n1` [mepanipyrim, 4-methyl-6-(prop-1-ynyl)-N-phenyl-2-pyrimidinamine], the MIC in assay [2] (medium CDA) was 10 µg/mL (≈ 44.8 µM); in [2] (medium GA), 20 µg/mL (≈ 89.6 µM); in assay [2] (medium GGA), 20 µg/mL (≈ 89.6 µM); in assay [3] (medium CDA), < 0.6 µg/mL; in assay [3] (medium GA), < 0.6 µg/mL; in assay [3] (medium GGA), < 0.6 µg/mL. Moreover, the MIC worked out at 10 µg/mL (≈ 44.8 µM) in [5] (medium CDA), 20 µg/mL (≈ 89.6 µM) in assay [5] (medium GA) and 20 µg/mL (≈ 89.6 µM) in assay [5] (medium GGA). Besides, the “MIC value, Cg” value in assay [4] (medium CDA), in assay [4] (medium GA) and in [4] (medium GGA) was “ng” throughout. Further, the “Threshold value, A. niger” value in [6] (medium GA) is reported as >6400 ppm; in [6] (medium PDA) it was 1600-3200 ppm. Also, the “Threshold value, A. pullulans” value in assay [7] (medium GA) and in assay [7] (medium PDA) was >6400 ppm throughout. In addition, the “Threshold value, C. globosum” value is recorded as 200-400 ppm in assay [8] (medium GA) and >6400 ppm in assay [8] (medium PDA). Also, the “Threshold value, C. cladosporioides” value in assay [9] (medium GA) and in [9] (medium PDA) was >6400 ppm each time. Besides, the “Threshold value, C. puteana” value in assay [10] (medium GA) and in assay [10] (medium PDA) was >6400 ppm throughout. Further, the “Threshold value, C. versicolor” value in assay [11] (medium GA) and in assay [11] (medium PDA) was >6400 ppm each time. For the same compound, the figures for the “Threshold value, H. grisea” value in assay [12] (medium GA) and in assay [12] (medium PDA) were 200-400 ppm and >6400 ppm, respectively. Also, the “Threshold value, T. sp.” value in [13] (medium GA) and in [13] (medium PDA) was >6400 ppm in each case. Besides, the “Threshold value, T. viride” value in assay [14] (medium GA) and in [14] (medium PDA) was >6400 ppm in each case.
`Cc1cc(C)nc(Nc2ccccc2)n1` [pyrimethanil, 4,6-dimethyl-N-phenyl-2-pyrimidinamine]: the MIC was 20 µg/mL (≈ 100 µM) in assay [2] (medium CDA); 20 µg/mL (≈ 100 µM) in assay [2] (medium GA); 20 µg/mL (≈ 100 µM) in assay [2] (medium GGA); < 0.6 µg/mL in [3] (medium CDA); < 0.6 µg/mL in assay [3] (medium GA); 20 µg/mL (≈ 100 µM) in assay [3] (medium GGA). The MIC in [5] (medium CDA), in assay [5] (medium GA) and in [5] (medium GGA) was > 20 µg/mL each time. The “MIC value, Cg” value in assay [4] (medium CDA), in assay [4] (medium GA) and in assay [4] (medium GGA) was “ng” each time. Also, the “Threshold value, A. niger” value in assay [6] (medium GA) and in [6] (medium PDA) was >6400 ppm each time. Further, the “Threshold value, A. pullulans” value in assay [7] (medium GA) is on record as 1600-3200 ppm; in assay [7] (medium PDA), >6400 ppm. The “Threshold value, C. globosum” value in assay [8] (medium GA) is on record as 800-1600 ppm; in assay [8] (medium PDA), >6400 ppm. Besides, the “Threshold value, C. cladosporioides” value in [9] (medium GA) was 1600-3200 ppm; in [9] (medium PDA), >6400 ppm. For the same compound, the “Threshold value, C. puteana” value in assay [10] (medium GA) and in assay [10] (medium PDA) was >6400 ppm in each case. Moreover, the “Threshold value, C. versicolor” value in assay [11] (medium GA) and in [11] (medium PDA) was >6400 ppm throughout. Moreover, the “Threshold value, H. grisea” value in assay [12] (medium GA) is 800-1600 ppm; in [12] (medium PDA), 1600-3200 ppm. The “Threshold value, T. sp.” value in assay [13] (medium GA) and in [13] (medium PDA) was >6400 ppm throughout. Moreover, the “Threshold value, T. viride” value in [14] (medium GA) and in assay [14] (medium PDA) was >6400 ppm in each case.

Values taken from patent publication US20090069356A1, “USE OF ANILINOPYRIMIDINES IN WOOD PROTECTION” (priority 2004, published 2009).
